Experimental data from PMC9705314, “Characterization of a new potent and long-lasting single chain peptide agonist of RXFP1 in cells and in vivo translational models” (Scientific Reports, 2022).
Substitutions are numbered along the chain they refer to. *1 amine or outer side, *2 acyl side, *3 side chain or, on linkers, in order; H or OH if unused. Where a SMILES comes first, the peptide text is derived from it. Side-chain parts run from the residue outwards. [ ]: non-standard residue; d: D form. The star is where a group is joined. γGlu = O=C(O)[C@H](CCC(=O)[*:2])N[*:1]; Stearoyl = CCCCCCCCCCCCCCCCCC(=O)*; Nle = CCCC[C@H](N)C(=O)O; AEEA = NCCOCCOCC(=O)O; Aib = CC(C)(N)C(=O)O

How the values were obtained:
RXFP1 [1] = target: T1, RXFP1 (Homo sapiens, UniProt Q9HBX9); assay: Phospho-VASP (Ser157) MSD assay in EA.hy926_RXFP1 cells; type: cell-based; set-up: expressed in transfected cells; host or cells: EA.hy926 (ATCC CRL-2922), lentiviral transduction, puromycin selection; conditions: serum-free DMEM, 20 min 37 °C, n = 3, read-out: EC50 [CI95%] VASP phosphorylation on S157
T1 sequence (Q9HBX9 1-757): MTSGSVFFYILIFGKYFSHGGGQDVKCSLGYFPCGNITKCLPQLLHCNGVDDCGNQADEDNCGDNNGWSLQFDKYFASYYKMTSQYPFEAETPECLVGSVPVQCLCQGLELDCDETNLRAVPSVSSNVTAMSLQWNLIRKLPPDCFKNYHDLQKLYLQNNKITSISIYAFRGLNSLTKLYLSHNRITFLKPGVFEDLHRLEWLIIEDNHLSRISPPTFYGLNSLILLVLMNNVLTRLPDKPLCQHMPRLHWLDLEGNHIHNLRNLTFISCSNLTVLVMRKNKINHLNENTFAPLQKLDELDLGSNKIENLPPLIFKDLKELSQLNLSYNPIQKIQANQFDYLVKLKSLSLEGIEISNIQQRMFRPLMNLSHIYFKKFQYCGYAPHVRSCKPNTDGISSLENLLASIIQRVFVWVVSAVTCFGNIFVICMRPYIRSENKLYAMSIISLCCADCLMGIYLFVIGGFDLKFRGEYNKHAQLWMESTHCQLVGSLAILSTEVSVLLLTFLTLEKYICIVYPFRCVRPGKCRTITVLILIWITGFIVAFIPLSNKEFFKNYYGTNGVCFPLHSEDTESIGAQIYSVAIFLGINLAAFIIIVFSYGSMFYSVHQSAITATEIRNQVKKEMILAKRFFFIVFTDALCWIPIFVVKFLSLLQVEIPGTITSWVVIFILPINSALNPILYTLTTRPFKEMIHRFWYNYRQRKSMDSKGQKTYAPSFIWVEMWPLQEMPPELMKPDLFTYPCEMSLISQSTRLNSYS
Method: These experiments were conducted according to the MSD protocol (K151FFD-2) and using a Sector 2400 from Mesoscale Discovery. In order to reduce the basal phosphorylation activity of VASP protein, EA.hy926_RXFP1 cells were stimulated with effector solutions in basal DMEM (i.e., without serum). Cells were plated in 96-well plate at a density of 35.000 cells/well overnight in a volume of 200µL of cell culture media. Prior to stimulation, growth medium was discarded, and the cells were washed one time with basal DMEM medium, before being incubated for 4 h with basal DMEM medium at 37 °C in 5% CO2. […] For control cells, 50µL of basal DMEM medium without effector standard solution were added onto the cells. The microplates were incubated for 20 min at 37 °C in 5% CO2. All the following steps were carried-out on ice. Medium was aspirated and the cells were directly lysed by addition of 50μL of complete lysis buffer/well (lysis buffer is provided in the pVASP assay kit and prepared according to MSD instructions). The microplates were placed for 60 min under orbital agitation. The cell lysates were collected in round bottom microplate then stored at − 80 °C until pVASP content determination according to MSD protocol.

wild type EA.hy926 cells = assay: xCELLigence real time impedance in wild type EA.hy926 cells; type: cell-based, human
Method: Cell impedance assays in both wild type EA.hy926 and EA.hy926_RXFP1 cell lines were performed using a MP RCTA xCELLigence Analyzer (ACEA Biosciences) on E-Plates. 20,000 cells/well were seeded in E-plates in 200 µL of growth medium and left to settle for 30 min at room temperature. Plates were then placed into the xCELLigence RTCA MP Instrument under 5% CO2 at 37 °C and impedance was continuously measured every 15 min overnight. The next day, a 4-h serum starvation was performed using the same medium but with 0.1% FCS (impedance measurement every 5 min).
Data analysis was performed using RTCA2.0 software according to ACEA recommendations. Raw impedance expressed as cell index was normalized for each well by dividing individual Cell Index values by baseline Cell index values obtained 5 min before peptide treatment in order to obtain Normalized Cell Index (NCI): mean NCI from 4 replicates for each condition are presented.

hRXFP1 (S69P) = target: T2, hRXFP1 (S69P) (Homo sapiens, UniProt Q9HBX9, S69P); assay: cAMP production in HEK cells expressing hRXFP1 (S69P); type: cell-based; conditions: hRXFP1 S69P mutant, n = 4 experiments in duplicate
T2 sequence (Q9HBX9 1-757 S69P): T1 sequence (Q9HBX9 1-757) with S69P
Method: HEK cells were stably transduced with lentiviral constructs (Vectalys, MOI 20, batches rV2.1A1.5057 B, rV2.1A1.5056 B and rV2.1A1.5059 B) containing a bicistronic vectors encoding hRXFP1 (S69P) or hRXFP1 (F76V) or hRXFP1 (S69P/F76V) under the EF1 promoter followed by an internal ribosome entry site (IRES) elements to express the neomycin antibiotic resistance gene for selection with 500 μg/mL Geneticin (Invitrogen, #10131-019). Three days post transduction, HEK cells were grown in the presence of Genetecin. Positive individual clones were selected and amplified, and cAMP readout (nM) was used as described for other cell types at a cell density of 8000 cells/well.

RXFP1 [2] = target: T1, RXFP1; assay: cAMP production in HEK_RXFP1 cells; type: cell-based; set-up: expressed in transfected cells; conditions: HEK_RXFP1 cells (wild type construct), n = 4 experiments in duplicate

| Molecule | EC50 (RXFP1 [1]) [nM] | impedance response (wild type EA.hy926 cells) | cAMP response (efficacy) (hRXFP1 (S69P)) | cAMP activity (RXFP1 [2]) |
| --- | --- | --- | --- | --- |
| CCCCCCCCCCCCCCCCCC(=O)N[C@@H](CCC(=O)N[C@@H](CCC(=O)N[C@@H](CCC(=O)NCCOCCOCC(=O)NCCOCCOCC(=O)NCCOCCOCC(=O)NCCCC[C@H](NC(=O)[C@H](CCCCNC(C)=O)NC(=O)[C@H](CCCCN)NC(=O)[C@H](CCCNC(=N)N)NC(=O)C(C)(C)NC(=O)[C@H](CO)NC(=O)[C@H](Cc1c[nH]c2ccccc12)NC(=O)[C@@H](NC(=O)[C@H](CO)NC(=O)[C@H](CCCC)NC(=O)CNC(=O)[C@H](CCC(=O)O)NC(=O)C(C)(C)NC(=O)C(C)(C)NC(=O)[C@@H](NC(=O)[C@H](CCCCNC(C)=O)NC(=O)[C@H](C)NC(=O)[C@H](CCCNC(=N)N)NC(=O)[C@@H](NC(=O)[C@H](CCCCN)NC(=O)[C@H](CCC(=O)O)NC(=O)[C@H](CCCNC(=N)N)NC(=O)CNC(=O)[C@H](CCC(=O)O)NC(=O)[C@H](CC(C)C)NC(C)=O)C(C)C)[C@@H](C)CC)[C@@H](C)O)C(N)=O)C(=O)O)C(=O)O)C(=O)O [SA10SC-RLX] (Ac-LEGREKVRAK(Ac)I[Aib][Aib]EG[Nle]STWS[Aib]RKK(Ac)K([AEEA-AEEA-AEEA-γGlu-γGlu-γGlu-Stearoyl])-NH2) | 0.19 |  |  |  |
| relaxin |  | Neither relaxin nor SA10SC-RLX induced a response | reduced in all RXFP1 mutants compared to the wild type construct | activity was in the same range |
